Results: patent US8742100B2, “Small molecule inhibitors of isoprenylcysteine carboxyl methyltransferase with potential anticancer activity” (National University of Singapore, priority 2009, dated 2014)
Where two headings read alike, the source gives them in different places. Each block holds one compound with its values, some of them ahead of it.

Columns and labels:
[1] = test system: MDA-MB-231 human breast cells; test: Proliferation assay, CellTiter 96 AQueous One Solution (MTS); type: cell-based; conditions: for inhibition at 10 µM: read-out: inhibition in initial screen at a fixed concentration
Method: (§1) The MDA-MB-231 human breast cells were maintained at 37° C. with 5% CO2 in DMEM (Sigma) supplemented with 10% fetal bovine serum (FBS, Hyclone), 50 U/ml penicillin (Gibco), and 50 μg/ml streptomycin (Gibco). […] The relative number of the live cells was determined using the CellTiter® 96 AQueous One Solution Cell Proliferation Assay (Promega). Each condition was performed in triplicate, and data presented represent that obtained from at least two separate experiments.
as §1, with “to date were” for “represent that”, “one determination.” for “at least two separate experiments.”

Icmt = biological target: T1, Icmt (Homo sapiens, UniProt O60725); test: Measurement of ICMT activity: incorporation of 3H from [3H]AdoMet into biotin-S-farnesyl L-cysteine, Sf9 membranes containing ICMT; type: biochemical; conditions: mean of two separate determinations; ±SD where more than two; read-out: IC50 Icmt inhibition
T1 construct: host or cells: Sf9 membranes
Method: (§2) Measurement of ICMT activity. Icmt activity was determined by following incorporation of ^3H from [^3H]AdoMet (Amersham Biosciences) into the small molecule substrate biotin-S-farnesyl L-cysteine (BFC). Inhibitors were first incubated at 37° C. for 20 min, with the Sf9 membranes containing ICMT. An assay mixture containing 4 μM BFC and 5 μM [^3H]AdoMet in 100 mM Hepes, pH 7.4 and 5 mM MgCl2 was added to initiate the reaction. Reactions were carried out at 37° C. for 20 min, and terminated by addition of 10% Tween 20 and streptavidin beads (GE Healthcare, 10 uL of packed beads suspended in 500 μL of 20 mM NaH2PO4, pH 7.4, containing 150 mM NaCl). The mixtures were mixed by gentle agitation overnight at 4° C. The beads were harvested by centrifugation in a tabletop microcentrifuge at 10,000 rpm for 5 min and washed three times with 500 μL of 20 mM NaH2PO4, pH 7.4, containing 150 mM NaCl. The beads were then suspended in the same buffer, transferred to scintillation vials, and radioactivity determined.
as §2, with “Activity.” for “activity.”

[2] = Binding to fetal bovine serum (plasma protein binding), centrifugal filter device, HPLC; type: in vitro ADME; conditions: bovine, 5% w/v fetal bovine serum in phosphate buffered saline; for fraction unbound at 30 min, 1 µM / fraction unbound at 30 min, 4 µM / fraction unbound at 30 min, 10 µM / fraction unbound at 30 min, 25 µM: 5% fetal bovine serum in PBS; for fraction unbound at 30 min: all conc (1, 4, 10, 25 uM), read-out: % Bound Average, all conc (converted)
Method: (§3) Semi-automatic high-throughput determination of plasma protein binding using a 96-well plate filtrate assembly and fast liquid chromatography—tandem mass spectrometry. […] Stock solutions were prepared in DMSO at 100× higher concentrations. A 5% w/v solution of fetal bovine serum in phosphate buffered saline was prepared. An aliquot (10 μL of the stock solution was added to 990 μL of the PBS solution containing 5% fetal bovine serum in a glass tube which was then incubated in a shaking water bath at 37° C. for 30 min. 500 μL of the solution was then transferred to a centrifugal filter device (Amicon Ultra 0.5 ml # UFC503096) and centrifuged at 14 000g, 15 min. After this time, the filter units were removed and placed (upside down) in a collecting tube containing 477 μL, of PBS. The latter was centrifuged at 2000g, 2 min to obtain the retentate. […] J.

fetal bovine serum = test: as above; type: in vitro ADME; conditions: fetal bovine serum
Method: as §3

[3] = Homo sapiens, MDA-MB-231, 72 h, read-out: IC50 Antiproliferative activity, MDA-MB-231 cells, 72 h, mean of two separate determinations, ±SD where more than two
[4] = Homo sapiens, MDA-MB-231 cells, 72 h, mean of two separate determinations, ±SD where more than two, read-out: IC50 Antiproliferative activity
[5] = Homo sapiens, MDA-MB-231 cells, MTS colorimetric assay, 72 h, one determination, read-out: IC50
[6] = read-out: % Bound Average (converted)
[7] = read-out: % Bound Run 1 (converted)
[8] = read-out: % Bound Run 2 (converted)
[9] = read-out: % Bound Run 3 (converted)
[10] = Homo sapiens, MDA-MB-231, 72 h, MDA-MB-231 cells, MTS colorimetric assay, 72 h, one determination

T1 sequence (O60725 whole entry, species assumed): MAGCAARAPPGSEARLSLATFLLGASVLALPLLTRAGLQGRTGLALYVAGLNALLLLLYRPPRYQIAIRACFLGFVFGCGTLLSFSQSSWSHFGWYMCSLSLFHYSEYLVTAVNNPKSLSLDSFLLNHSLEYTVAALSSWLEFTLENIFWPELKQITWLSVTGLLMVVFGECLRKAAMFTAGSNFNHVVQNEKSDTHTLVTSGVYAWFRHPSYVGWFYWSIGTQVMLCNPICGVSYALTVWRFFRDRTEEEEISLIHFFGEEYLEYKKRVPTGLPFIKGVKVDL

SMILES: CCCCCCCCn1cc(C(N)=O)c2cc(-c3cccc(C)c3)ccc21 [Compound 5-1, 1-Octyl-5-m-tolyl-1H-indole-3-carboxamide]
IC50 [1, 3]: > 100 µM
IC50 (Icmt): 30 µM

SMILES: CCCCCCCCn1cc(CC(=O)N2CCN(C)CC2)c2cc(-c3cccc(C)c3)ccc21 [Compound 3-6, 1-(4-Methylpiperazin-1-yl)-2-(1-octyl-5-m-tolyl-1H-indol-3-yl)ethanone]
IC50 [1, 3]: 19.7 ± 0.9 µM
IC50 (Icmt): 1.7 ± 0.4 µM

IC50 [1, 4]: > 100 µM
IC50 (Icmt): > 100 µM
SMILES: CC(C)=CCn1ccc2cc(-c3cccc(C)c3)ccc21 [Compound 6-3, 1-(3-Methylbut-2-enyl)-5-m-tolyl-1H-indole]

IC50 [1, 4]: > 100 µM
IC50 (Icmt): 69 µM
SMILES: CC(C)=CCn1cc(CC(N)=O)c2cc(F)ccc21 [Compound 6-8, 2-(5-Fluoro-1-(3-methylbut-2-enyl)-1H-indol-3-yl)acetamide]

SMILES: CCCCCCCCn1cc(CN2CCCC2)c2cc(F)ccc21 [6-9(5), 5-fluoro-1-octyl-3-(pyrrolidin-1-ylmethyl)-1H-indole]
IC50 [1, 5]: 2.2 µM

fraction unbound at 30 min, 1 µM [2, 6]: 0.776
fraction unbound at 30 min, 1 µM [2, 7]: 0.747
fraction unbound at 30 min, 1 µM [2, 8]: 0.845
fraction unbound at 30 min, 1 µM [2, 9]: 0.737
fraction unbound at 30 min, 4 µM [2, 6]: 0.638
fraction unbound at 30 min, 4 µM [2, 7]: 0.616
fraction unbound at 30 min, 4 µM [2, 8]: 0.676
fraction unbound at 30 min, 4 µM [2, 9]: 0.621
fraction unbound at 30 min, 10 µM [2, 6]: 0.765
fraction unbound at 30 min, 10 µM [2, 7]: 0.697
fraction unbound at 30 min, 10 µM [2, 8]: 0.783
fraction unbound at 30 min, 10 µM [2, 9]: 0.815
fraction unbound at 30 min, 25 µM [2, 6]: 0.737
fraction unbound at 30 min, 25 µM [2, 7]: 0.725
fraction unbound at 30 min, 25 µM [2, 8]: 0.792
fraction unbound at 30 min, 25 µM [2, 9]: 0.693
fraction unbound at 30 min [2]: 0.729
SMILES: CCN(CC)Cc1cn(CC=C(C)C)c2ccc(-c3cccc(C)c3)cc12 [Compound J38G, N-ethyl-N-((1-(3-methylbut-2-enyl)-5-m-tolyl-1H-indol-3-yl)methyl)ethanamine]
binding capacity compared with cysmethynil (fetal bovine serum): lower binding capacities than cysmethynil

SMILES: CC(C)=CCn1cc(CN2CCOCC2)c2cc(-c3cccc(C)c3)ccc21 [Compound 6-6, 4-((1-(3-methylbut-2-enyl)-5-m-tolyl-1H-indol-3-yl)methyl)morpholine]
IC50 [1, 3]: 34 ± 3 µM
IC50 (Icmt): 2 ± 0.8 µM

SMILES: CCCCCCCCn1cc(CN2CCCCC2)c2cc(F)ccc21 [6-9(2), 5-fluoro-1-octyl-3-(piperidin-1-ylmethyl)-1H-indole]
IC50 [1, 10]: 2.3 µM

SMILES: CCCCCCCCn1cc(CN2CCSCC2)c2cc(F)ccc21 [6-9(3), 4-((5-fluoro-1-octyl-1H-indol-3-yl)methyl)thiomorpholine]
inhibition at 10 µM ([1]; Homo sapiens, MDA-MB-231 cells): ~45%

IC50 [1, 4]: 4.7 µM
IC50 (Icmt): 2.1 µM
SMILES: CCCCCCCCn1cc(CC(=O)NC)c2cc(-c3cccc(C)c3)ccc21 [Compound 3-7, N-Methyl-2-(1-octyl-5-m-tolyl-1H-indol-3-yl)acetamide]

IC50 [1, 4]: 70 µM
IC50 (Icmt): 7 µM
SMILES: CCCCCCCCn1cc(CC(N)=O)c2cc(F)ccc21 [Compound 1-8, 2-(5-Fluoro-1-octyl-1H-indol-3-yl)acetamide]

SMILES: CCCCCCCCn1cc(CN2CCOCC2)c2cc(F)ccc21 [6-9(4), 4-((5-fluoro-1-octyl-1H-indol-3-yl)methyl)morpholine]
IC50 [1, 5]: 3.2 µM

IC50 [1, 4]: 20.7 µM
IC50 (Icmt): 1.2 µM
SMILES: CCCCCCCCn1cc(CCC(N)=O)c2cc(-c3cccc(C)c3)ccc21 [Compound 5-2, 3-(1-Octyl-5-m-tolyl-1H-indol-3-yl)propanamide]

SMILES: CCCCCCCCn1cc(CN(CC)CC)c2cc(F)ccc21 [Compound 6-9, N-ethyl-N-((5-fluoro-1-octyl-1H-indol-3-yl)methyl)ethanamine]
IC50 [1, 10]: 2.7 µM
IC50 ([1]; MDA-MB-231 cells, MTS colorimetric assay, 72 h, one determination): 2 µM

SMILES: CCCCCCCCn1cc(CN2CCN(C)CC2)c2cc(F)ccc21 [6-9(6), 5-fluoro-3-((4-methylpiperazin-1-yl)methyl)-1-octyl-1H-indole]
inhibition at 10 µM ([1]; Homo sapiens, MDA-MB-231 cells): ~45%

SMILES: CCCCCCCCn1cc(CN(C)C)c2cc(F)ccc21 [6-9(1), 1-(5-fluoro-1-octyl-1H-indol-3-yl)-N,N-dimethylmethanamine]
IC50 [1, 10]: 4.9 µM

fraction unbound at 30 min, 1 µM [2, 6]: 0.0962
fraction unbound at 30 min, 1 µM [2, 7]: 0.107
fraction unbound at 30 min, 1 µM [2, 8]: 0.0611
fraction unbound at 30 min, 1 µM [2, 9]: 0.12
fraction unbound at 30 min, 4 µM [2, 6]: 0.104
fraction unbound at 30 min, 4 µM [2, 7]: 0.0557
fraction unbound at 30 min, 4 µM [2, 8]: 0.124
fraction unbound at 30 min, 4 µM [2, 9]: 0.131
fraction unbound at 30 min, 10 µM [2, 6]: 0.0945
fraction unbound at 30 min, 10 µM [2, 7]: 0.136
fraction unbound at 30 min, 10 µM [2, 8]: 0.0943
fraction unbound at 30 min, 10 µM [2, 9]: 0.0538
fraction unbound at 30 min, 25 µM [2, 6]: 0.122
fraction unbound at 30 min, 25 µM [2, 7]: 0.219
fraction unbound at 30 min, 25 µM [2, 8]: 0.0636
fraction unbound at 30 min, 25 µM [2, 9]: 0.0844
fraction unbound at 30 min [2]: 0.104
IC50 (Icmt): 1.5 µM
SMILES: CCCCCCCCn1cc(CC(N)=O)c2cc(-c3cccc(C)c3)ccc21 [cysmethynil, 2-(1-octyl-5-m-tolyl-1H-indol-3-yl) acetamide, reference compound]
